How the values were obtained:
[1] = Polymorph screening (solid form by XRPD); type: physicochemical
Experimental: Polymorph screening experiments were performed using a series of crystallization and solid transition methods.
Solid vapor diffusion experiments were conducted using 13 different solvents. Approximately 15 mg of Compound 1 (Type A) was weighed into a 4-mL vial, which was placed into a 20-mL vial with 3 mL of volatile solvent. The 20-mL vial was sealed with a cap and kept at RT for 7 days, allowing solvent vapor to interact with the sample.
Slurry experiments were conducted […] in different solvent systems. About 15 mg of Compound 1 (Type A) was suspended in 0.3 mL of solvent in a 2-mL glass vial. After the suspension was stirred magnetically for 7 days at 4° C., RT or 50° C., the remaining solids were isolated for XRPD analysis (Method A).
Approximately 15 mg of Compound 1 (Type A) was dissolved in an appropriate solvent to obtain a clear solution in a 4-mL vial. This solution was then placed into a 20-mL vial with 3 mL of anti-solvent. The 20-mL vial was sealed with a cap and kept at RT, allowing sufficient time for organic vapor to interact with the solution. After 7 days, solids were isolated for XRPD analysis (Method A).
(§1) Compound 1 (Type A) was weighed into a 3 mL glass vial with the addition of the corresponding solvent or solvent mixture. After being vortexed and ultrasonically shaken, the suspension was filtered, and the filtrate was transferred to a clean 4 mL shell vial. A small amount of Compound 1 (Type A) was added as a seed crystal. Subsequently, the shell vial was sealed with a polyethylene plug with one pinhole and enclosed in a 20 mL glass vial containing 3 mL of the anti-solvent at room temperature for liquid vapor diffusion. The solid forms resulting from the experiments were characterized by XRPD analysis (Method C).
Slow evaporation experiments were performed under 4 conditions. Briefly, about 15 mg of Compound 1 (Type A) was mixed with 1.0-2.5 mL of solvent in a 4-mL glass vial. If the solids were not dissolved completely, suspensions were filtered using a PTFE membrane (pore size of 0.2 μm) and the filtrates were used for the follow-up steps. The visually clear solutions were subjected to evaporation at RT with vials sealed by Parafilm® (3-5 pinholes).
as §1, with “placed” for “enclosed”, “fume hood” for “20 mL glass vial containing 3 mL of the anti-solvent”, “slow evaporation.” for “liquid vapor diffusion.”
A total of 8 anti-solvent addition experiments were carried out. About 15 mg of Compound 1 (Type A) was dissolved in 0.2-4.0 mL of solvent to obtain a clear solution. The solution was magnetically stirred followed by addition of 0.2 mL anti-solvent per step until precipitate appeared or the total amount of anti-solvent reached 15.0 mL. The obtained precipitate was isolated for XRPD analysis (Method A).
A total of 2 reverse anti-solvent addition experiments were carried out. About 15 mg of Compound 1 (type A) was dissolved in 0.2 mL solvent to obtain a clear solution. The solution was added into 2 mL anti-solvent. The obtained precipitate was isolated for XRPD analysis (Method A). Results summarized in Table 16 indicated Type A or a mixture of Type A and amorphous material were generated.
Compound 1 (Type A) was weighed into a 3 mL glass vial with the addition of the corresponding solvent or solvent mixture. After being vortexed and ultrasonically shaken to accelerate dissolution, the suspension was placed in a biochemical incubator and equilibrated at 50° C. for 30 minutes. […]

[2] = Dynamic vapor sorption (DVS); type: physicochemical
Experimental: Dynamic Vapor Sorption (DVS) was measured with a Surface Measurement System (SMS) DVS Intrinsic.

Solid Form ([1]; liquid vapor diffusion RT 7 days, solvent 1,4-Dioxane, anti-solvent EtOAc): Type A | Solid Form ([1]; liquid vapor diffusion RT 7 days, solvent 1,4-Dioxane, anti-solvent MTBE): Type A | Solid Form ([1]; liquid vapor diffusion RT 7 days, solvent 1,4-Dioxane, anti-solvent MeOH): Type B | Solid Form ([1]; liquid vapor diffusion RT 7 days, solvent 1,4-Dioxane, anti-solvent Toluene): Type A | Solid Form ([1]; liquid vapor diffusion RT 7 days, solvent 1,4-Dioxane, anti-solvent n-Heptane): Type F | Solid Form ([1]; liquid vapor diffusion RT 7 days, solvent Acetone, anti-solvent H2O): Type B | Solid Form ([1]; liquid vapor diffusion RT 7 days, solvent Acetone, anti-solvent IPA): Type A | Solid Form ([1]; liquid vapor diffusion RT 7 days, solvent Acetone, anti-solvent MIBK): Type A | Solid Form ([1]; liquid vapor diffusion RT 7 days, solvent CHCl3, anti-solvent 2-MeTHF): Type A | Solid Form ([1]; liquid vapor diffusion RT 7 days, solvent CHCl3, anti-solvent EtOH): Type A | Solid Form ([1]; liquid vapor diffusion RT 7 days, solvent CHCl3, anti-solvent IPAc): Type A | Solid Form ([1]; liquid vapor diffusion RT 7 days, solvent THF, anti-solvent EtOAc): Type A | Solid Form ([1]; liquid vapor diffusion RT 7 days, solvent THF, anti-solvent MeOH): Type A | Solid Form ([1]; liquid vapor diffusion, seeded, RT, 3.0 mg in 0.5 mL MeOH, anti-solvent MTBE): Type B | Solid Form ([1]; liquid vapor diffusion, seeded, RT, 4.9 mg in 0.5 mL Acetone, anti-solvent MTBE): Type A | Solid Form ([1]; liquid vapor diffusion, seeded, RT, 10.0 mg in 0.5 mL ACN, anti-solvent MTBE): Type B | Solid Form ([1]; liquid vapor diffusion, seeded, RT, 10.1 mg in 0.5 mL ACN, anti-solvent H2O): Type B | Solid Form ([1]; liquid vapor diffusion, seeded, RT, 10.4 mg in 0.5 mL THF, anti-solvent n-pentane): Type D | Solid Form ([1]; liquid vapor diffusion, seeded, RT, 10.8 mg in 0.1 mL DMSO, anti-solvent IPA): Type A | Solid Form ([1]; liquid vapor diffusion, seeded, RT, 10.9 mg in 0.1 mL DMF, anti-solvent IPAc): Type I | Solid Form ([1]; liquid vapor diffusion, seeded, RT, 11.5 mg in 0.5 mL THF, anti-solvent MeOH): Type D | Solid Form ([1]; liquid vapor diffusion, seeded, RT, 12.1 mg in 0.5 mL THF, anti-solvent EtOAc): Type M | Solid Form ([1]; liquid vapor diffusion, seeded, RT, 17.6 mg in 0.5 mL 1,4-dioxane, anti-solvent n-heptane): Type A | Solid Form ([1]; liquid vapor diffusion, seeded, RT, 30.8 mg in 0.2 mL NMP, anti-solvent MTBE): Type J | Solid Form ([1]; liquid vapor diffusion, seeded, RT, 31.9 mg in 0.2 mL DMSO, anti-solvent H2O): Type A | Solid Form ([1]; liquid vapor diffusion, seeded, RT, 32.1 mg in 0.2 mL DMF, anti-solvent Toluene): Type H | Solid Form ([1]; liquid vapor diffusion, seeded, RT, 34.3 mg in 0.3 mL CHCl3, anti-solvent n-pentane): Type A | Solid Form ([1]; slow cooling 50° C. to 5° C., 15.4 mg in 1.5 mL 2-MeTHF): Type K | Solid Form ([1]; slow cooling 50° C. to 5° C., 15.7 mg in 1.5 mL EtOH): Type A | Solid Form ([1]; slow cooling 50° C. to 5° C., 20.3 mg in 1.5 mL EtOAc): Type B | Solid Form ([1]; slow cooling 50° C. to 5° C., 20.5 mg in 1.5 mL MeOH): Type B | Solid Form ([1]; slow cooling 50° C. to 5° C., 39.7 mg in 1.0 mL THF/H2O (1:1 v/v), then kept at 5° C. for 22 days): Type L | Solid Form ([1]; slow cooling 50° C. to 5° C., 40.3 mg in 0.8 mL ACN/H2O (2:1 v/v)): Type B | Solid Form ([1]; slow cooling 50° C. to 5° C., 40.3 mg in 1.0 mL Acetone/n-heptane (3:1 v/v)): Type A | Solid Form ([1]; slow cooling 50° C. to 5° C., 40.4 mg in 1.0 mL 1,4-dioxane/H2O (1:1 v/v)): Type B | Solid Form ([1]; slow cooling 50° C. to 5° C., 40.6 mg in 1.0 mL Acetone/H2O (2:1 v/v)): Type B | Solid Form ([1]; slow evaporation, seeded, RT, 3.0 mg in 1.0 mL MeOH): Type B | Solid Form ([1]; slow evaporation, seeded, RT, 3.2 mg in 0.5 mL EtOAc/2-MeTHF (1:1 v/v)): Type B | Solid Form ([1]; slow evaporation, seeded, RT, 3.2 mg in 1.0 mL EtOAc): Type B | Solid Form ([1]; slow evaporation, seeded, RT, 4.5 mg in 0.5 mL Acetone/EtOH (1:1 v/v)): Type A | Solid Form ([1]; slow evaporation, seeded, RT, 4.6 mg in 0.5 mL Acetone): Type A | Solid Form ([1]; slow evaporation, seeded, RT, 4.7 mg in 0.5 mL Acetone/EtOAc (1:1 v/v)): Type A | Solid Form ([1]; slow evaporation, seeded, RT, 5.0 mg in 0.5 mL ACN/MIBK (1:1 v/v)): Type A | Solid Form ([1]; slow evaporation, seeded, RT, 5.2 mg in 0.5 mL MeOH/Acetone (1:1 v/v)): Type B | Solid Form ([1]; slow evaporation, seeded, RT, 7.3 mg in 0.5 mL DCM/IPAc (1:1 v/v)): Type A | Solid Form ([1]; slow evaporation, seeded, RT, 9.6 mg in 0.5 mL THF/H2O (5:1 v/v)): Type B | Solid Form ([1]; slow evaporation, seeded, RT, 9.8 mg in 0.5 mL ACN/H2O (5:1 v/v)): Type B | Solid Form ([1]; slow evaporation, seeded, RT, 10.0 mg in 0.5 mL ACN): Type B | Solid Form ([1]; slow evaporation, seeded, RT, 10.1 mg in 0.5 mL THF): Type D | Solid Form ([1]; slow evaporation, seeded, RT, 10.7 mg in 0.5 mL THF/EtOH (1:1 v/v)): Type A | Solid Form ([1]; slow evaporation, seeded, RT, 10.8 mg in 0.5 mL DCM/n-heptane (1:1 v/v)): Type A | Solid Form ([1]; slow evaporation, seeded, RT, 11.1 mg in 0.5 mL ACN/EtOAc (1:1 v/v)): Type A | Solid Form ([1]; slow evaporation, seeded, RT, 13.0 mg in 0.5 mL Acetone/H2O (5:1 v/v)): Type B | Solid Form ([1]; slow evaporation, seeded, RT, 13.8 mg in 0.5 mL ACN/EtOH (1:1 v/v)): Type A | Solid Form ([1]; slow evaporation, seeded, RT, 14.4 mg in 0.5 mL ACN/2-MeTHF (1:1 v/v)): Type A | Solid Form ([1]; slow evaporation, seeded, RT, 17.3 mg in 0.5 mL ACN/IPA (4:1 v/v)): Type A | Solid Form ([1]; slow evaporation, seeded, RT, 22.7 mg in 0.5 mL CHCl3/IPA (1:1 v/v)): Type A | Solid Form ([1]; slow evaporation, seeded, RT, 22.9 mg in 0.5 mL CHCl3/toluene (1:1 v/v)): Type A | Solid Form ([1]; slow evaporation, seeded, RT, 27.7 mg in 0.5 mL ACN/n-heptane (10:1 v/v)): Type B | Solid Form ([1]; slow evaporation, seeded, RT, 32.9 mg in 0.5 mL 1,4-dioxane/H2O (4:1 v/v)): Gel | Solid Form ([1]; slurry of Type A 7 days, 1,4-Dioxane/MeOH (v/v, 1:1), 50° C.): Type A | Solid Form ([1]; slurry of Type A 7 days, 1,4-Dioxane/Toluene (v/v, 1:1), 50° C.): Type A | Solid Form ([1]; slurry of Type A 7 days, 1,4-Dioxane, 50° C.): Type A | Solid Form ([1]; slurry of Type A 7 days, 1,4-Dioxane, RT): Type C | Solid Form ([1]; slurry of Type A 7 days, 2-MeTHF, 50° C.): Type A | Solid Form ([1]; slurry of Type A 7 days, ACN/IPA (v/v, 1:3), 50° C.): Type A | Solid Form ([1]; slurry of Type A 7 days, ACN, 4° C.): Type A | Solid Form ([1]; slurry of Type A 7 days, Acetone/H2O (v/v, 1:3), 50° C.): Type B | Solid Form ([1]; slurry of Type A 7 days, Acetone/IPAc (v/v, 1:3), 50° C.): Type A | Solid Form ([1]; slurry of Type A 7 days, Acetone, RT): Type A | Solid Form ([1]; slurry of Type A 7 days, CHCl3/EtOAc (v/v, 1:3), 50° C.): Type A | Solid Form ([1]; slurry of Type A 7 days, CHCl3/MeOH (v/v, 1:3), 50° C.): Type A | Solid Form ([1]; slurry of Type A 7 days, CHCl3/Toluene (1/3), 4° C.): Type B + Type A | Solid Form ([1]; slurry of Type A 7 days, DCM/EtOH (v/v, 1:3), 50° C.): Type A | Solid Form ([1]; slurry of Type A 7 days, DCM/n-Heptane (1/3), 4° C.): Type A | Solid Form ([1]; slurry of Type A 7 days, DMSO/H2O (1/9), RT): Type B | Solid Form ([1]; slurry of Type A 7 days, EtOAc, 50° C.): Type A | Solid Form ([1]; slurry of Type A 7 days, EtOH, 50° C.): Type A | Solid Form ([1]; slurry of Type A 7 days, H2O, 50° C.): Type B | Solid Form ([1]; slurry of Type A 7 days, IPA, 50° C.): Type A | Solid Form ([1]; slurry of Type A 7 days, IPAc, 50° C.): Type A | Solid Form ([1]; slurry of Type A 7 days, MIBK, 50° C.): Type A | Solid Form ([1]; slurry of Type A 7 days, MTBE, 50° C.): Type A | Solid Form ([1]; slurry of Type A 7 days, MeOH, 50° C.): Type B | Solid Form ([1]; slurry of Type A 7 days, THF, 4° C.): Type D | Solid Form ([1]; slurry of Type A 7 days, THF, 50° C.): Type A | Solid Form ([1]; slurry of Type A 7 days, Toluene, 50° C.): Type A | Solid Form ([1]; slurry of Type A 7 days, n-Heptane, 50° C.): Type A | hygroscopicity ([2]; DVS at RT): hygroscopic | water uptake from 40% RH to 80% RH ([2]; DVS, RT): 1.0% | water uptake up to 40% RH ([2]; DVS, up to 40% RH (ambient condition), RT): 3.4% | form change before and after DVS test ([2]; RT, determined by XRPD): No form change
SMILES: O=C([C@H](CO)c1ccccc1)N1CC2=C(C1)CN(S(=O)(=O)c1cnc3c(c1)OCCO3)C2 [Type A, (S)-1-(5-[2H,3H-[1,4]dioxino[2,3-b]pyridine-7-sulfonyl]-1H,2H,3H,4H,5H,6H-pyrrolo[3,4-c]pyrrol-2-yl)-3-hydroxy-2-phenylpropan-1-one]
